Tests used:
mTor = biological target: T1, mTor (Homo sapiens, UniProt P42345); assay: In vitro kinase inhibition, mTor (Millipore/Merck kinases panel screening); format: biochemical; conditions: compound at 0.03 μM
T1 construct: purchased Millipore/Merck KGA
Procedure: (§1) In vitro kinase inhibition activities included Pi3k and mTor activities can be tested with Millipore/Merck KGA of Europe in their kinases panel screening. Animal antitumor activity testing can be conducted by various cancer xenograft models for a compound of formula I.
(§2) The following compounds or a pharmaceutically acceptable salt thereof, but not limited, can also be prepared similarly according to the methods described in Scheme I-Scheme II. They are also tested for the inhibitions on mTor or pi3k kinases, or tumor cell lines.

pi3K = assay: In vitro kinase inhibition, pi3K (Millipore/Merck kinases panel screening); format: biochemical; conditions: compound at 0.03 μM
Procedure: as §1, §2

Row | activity at 0.03 µM (mTor; scaffold drawing 7 series) | pi3K % activity @0.03 μM (pi3K; scaffold drawing 7 series) | Compound | other results
1 | 14% |  | O=C(CN1CCC(O)CC1)Nc1ccc(-c2ccc3ncc4c(c3c2)n(-c2ccc(Cl)c(C(F)(F)F)c2)c2nncn42)cn1 [N-(5-{16-[4-chloro-3-(trifluoromethyl)phenyl]-8,11,13,14,16-pentaazatetracyclo[8.6.0.0^2,7.0^11,15]-hexadeca-1(10),2,4,6,8,12,14-heptaen-4-yl}pyridin-2-yl)-2-(4-hydroxypiperidin-1-yl)acetamide] | 
2 | 17% | 82% | O=C(CN1CCOCC1)Nc1ccc(-c2ccc3ncc4c(c3c2)n(-c2ccc(Cl)c(C(F)(F)F)c2)c2nncn42)cn1 [N-(5-{16-[4-chloro-3-(trifluoromethyl)phenyl]-8,11,13,14,16-pentaazatetracyclo[8.6.0.0^2,7.0^11,15]-hexadeca-1(10),2,4,6,8,12,14-heptaen-4-yl}pyridin-2-yl)-2-(morpholin-4-yl)acetamide] | 
3 | -4% | 74% | CN1CCN(CC(=O)Nc2ccc(-c3ccc4ncc5c(c4c3)n(-c3ccc(Cl)c(C(F)(F)F)c3)c3nncn53)cn2)CC1 [N-(5-{16-[4-chloro-3-(trifluoromethyl)phenyl]-8,11,13,14,16-pentaazatetracyclo[8.6.0.0^2,7.0^11,15]-hexadeca-1(10),2,4,6,8,12,14-heptaen-4-yl}pyridin-2-yl)-2-(4-methylpiperazin-1-yl)acetamide] | 
4 | -8% |  | Fc1cc(-n2c3c4cc(-c5cnc6ccccc6c5)ccc4ncc3n3cnnc23)cc(C(F)(F)F)c1 [3-quinoline, 5-F, H, 16-[3-fluoro-5-(trifluoromethyl)phenyl]-4-(quinolin-3yl)-8,11,13,14,16-pentaazatetracyclo-[8.6.0.0^2,7.0^11,15]hexadeca-1(10),2,4,6,8,12,14-heptaene] | 
5 | 5% |  | CC(=O)Nc1ccc(-c2ccc3ncc4c(c3c2)n(-c2ccc(Cl)c(C(F)(F)F)c2)c2nncn42)cn1 [N-(5-pyridin-2-yl)acetamide, 4-Cl, H, N-(5-{16-[4-chloro-3-(trifluoromethyl)phenyl]-8,11,13,14,16-pentaazatetracyclo-[8.6.0.0^2,7.0^11,15]hexadeca-1(10),2,4,6,8,12,14-heptaen-4-yl}pyridin-2-yl)acetamide] | 
6 | -19% | 38% | Nc1ccc(-c2ccc3ncc4c(c3c2)n(-c2ccc(Cl)c(C(F)(F)F)c2)c2nncn42)cn1 [5-pyridin-2-amine, 4-Cl, H, 5-{16-[4-chloro-3-(trifluoromethyl)phenyl]-8,11,13,14,16-pentaazatetracyclo-[8.6.0.0^2,7.0^11,15]hexadeca-1(10),2,4,6,8,12,14-heptaen-4-yl}pyridin-2-amine] | 
7 | -3% | 92% | COCCNc1ccc(-c2ccc3ncc4c(c3c2)n(-c2cccc(C(F)(F)F)c2)c2nncn42)cn1 [N-(2-methoxyethyl)-5-{16-[3-(trifluoromethyl)phenyl]-8,11,13,14,16-pentaazatetracyclo-[8.6.0.0^2,7.0^11,15]-hexadeca-1(10),2,4,6,8,12,14-heptaen-4-yl}pyridin-2-amine] | 
8 | -5% | 68% | FC(F)(F)c1cccc(-n2c3c4cc(-c5cnc6ccccc6c5)ccc4ncc3n3cnnc23)c1 [3-quinoline, H, H, 4-(quinolin-3yl)-16-[3-(trifluoromethyl)phenyl]-8,11,13,14,16-pentaazatetracyclo-[8.6.0.0^2,7.0^11,15]hexadeca-1(10),2,4,6,8,12,14-heptaene] | 
9 | 4% | 82% | O=C(CN1CCCC1)Nc1ccc(-c2ccc3ncc4c(c3c2)n(-c2ccc(Cl)c(C(F)(F)F)c2)c2nncn42)cn1 [N-(5-{16-[4-chloro-3-(trifluoromethyl)phenyl]-8,11,13,14,16-pentaazatetracyclo[8.6.0.0^2,7.0^11,15]-hexadeca-1(10),2,4,6,8,12,14-heptaen-4-yl}pyridin-2-yl)-2-(pyrrolidin-1-yl)acetamide] | 
10 | 0% |  | Fc1ccc(C(F)(F)F)cc1-n1c2c3cc(-c4cnc5ccccc5c4)ccc3ncc2n2cnnc12 [3-quinoline, 6-F, H, 16-[2-fluoro-5-(trifluoromethyl)phenyl]-4-(quinolin-3yl)-8,11,13,14,16-pentaazatetracyclo-[8.6.0.0^2,7.0^11,15]hexadeca-1(10),2,4,6,8,12,14-heptaene] | 
11 | 57% |  | O=C1CCN(CC(=O)Nc2ccc(-c3ccc4ncc5c(c4c3)n(-c3ccc(Cl)c(C(F)(F)F)c3)c3nncn53)cn2)CC1 [N-(5-{16-[4-chloro-3-(trifluoromethyl)phenyl]-8,11,13,14,16-pentaazatetracyclo[8.6.0.0^2,7.0^11,15]-hexadeca-1(10),2,4,6,8,12,14-heptaen-4-yl}pyridin-2-yl)-2-(4-oxopiperidin-1-yl)acetamide] | 
12 | 15% |  | CN(C)CC(=O)Nc1ccc(-c2ccc3ncc4c(c3c2)n(-c2ccc(Cl)c(C(F)(F)F)c2)c2nncn42)cn1 [N-(5-{16-[4-chloro-3-(trifluoromethyl)phenyl]-8,11,13,14,16-pentaazatetracyclo[8.6.0.0^2,7.0^11,15]-hexadeca-1(10),2,4,6,8,12,14-heptaen-4-yl}pyridin-2-yl)-2-(dimethylamino)acetamide] | 

More lines, now with the values behind:

Row | Compound | activity at 0.03 µM (mTor; scaffold drawing 7 series) | pi3K % activity @0.03 μM (pi3K; scaffold drawing 7 series) | other results
13 | FC(F)(F)c1cc(-n2c3c4cc(-c5cnc6ccccc6c5)ccc4ncc3n3cnnc23)ccc1Cl [3-quinoline, 4-Cl, H, 16-[4-chloro-3-(trifluoromethyl)phenyl]-4-(quinolin-3-yl)-8,11,13,14,16-pentaazatetracyclo-[8.6.0.0^2,7.0^11,15]hexadeca-1(10),2,4,6,8,12,14-heptaene] | 11% | 84% | 
14 | FC(F)(F)c1cccc(-n2c3c4cc(-c5cccnc5)ccc4ncc3n3cnnc23)c1 [3-pyridine, H, H, 16-(3-(trifluoromethyl)phenyl)-4-(pyridin-3-yl)-8,11,13,14,16-pentaazatetracyclo-[8.6.0.0^2,7.0^11,15]hexadeca-1(10),2,4,6,8,12,14-heptaene] | 0% | 70% | 
15 | 12-ethyl-16-[4-fluoro-3 -(trifluoromethyl)phenyl]-4-8,11,13,14,16-pentaazatetracyclo[8.6.0.0^2,7.0^11,15]hexadeca-1(10),2,4,6,8,12,14-heptaene [3-pyridine, 4-F, CH2CH3] |  |  | mTor % activity @0.03 μM (mTor; scaffold drawing 7 series): 73%
16 | FC(F)(F)c1cc(-n2c3c4cc(-c5cccnc5)ccc4ncc3n3cnnc23)ccc1Cl [3-pyridine, 4-Cl, H, 16-[4-chloro-3-(trifluoromethyl)phenyl]-4-(pyridin-3-yl)-8,11,13,14,16-pentaazatetracyclo-[8.6.0.0^2,7.0^11,15]hexadeca-1(10),2,4,6,8,12,14-heptaene] | 19% | 77% | 
17 | Fc1ccc(-c2ccc3ncc4c(c3c2)n(-c2ccc(Cl)c(C(F)(F)F)c2)c2nncn42)cc1F [3,4-Diflurophenyl, 4-Cl, H, 16-[4-chloro-3-(trifluoromethyl)phenyl]-4-(3,4-difluorophenyl)-8,11,13,14,16-pentaazatetra-cyclo-[8.6.0.0^2,7.0^11,15]hexadeca-1(10),2,4,6,8,12,14-heptaene] |  |  | mTor % activity @0.03 μM (mTor; scaffold drawing 7 series): 31%
18 | 2-(4-methylpiperazin-1-yl)-N-(5-{16-[3-(trifluoromethyl)phenyl]-8,11,13,14,16-pentaazatetra-cyclo[8.6.0.0^2,7.0^11,15]hexadeca-1(10),2,4,6,8,12,14-heptaen-4-yl}pyridin-2-yl)acetamide |  | 97% | mTor % activity @0.03 μM (mTor; scaffold drawing 7 series): 46%
19 | N-[2-(morpholin-4-yl)ethyl]-5-{16-[3-(trifluoromethyl)phenyl]-8,11,13,14,16-pentaazatetra-cyclo[8.6.0.0^2,7.0^11,15]hexadeca-1(10),2,4,6,8,12,14-heptaen-4-yl}pyridin-2-amine |  | 94% | mTor % activity @0.03 μM (mTor; scaffold drawing 7 series): 43%
20 | OCCNc1ccc(-c2ccc3ncc4c(c3c2)n(-c2ccc(Cl)c(C(F)(F)F)c2)c2nncn42)cn1 [2-[(5-{16-[4-chloro-3-(trifluoromethyl)phenyl]-8,11,13,14,16-pentaazatetracyclo-[8.6.0.0^2,7.0^11,15]-hexadeca-1(10),2,4,6,8,12,14-heptaen-4-yl}pyridin-2-yl)amino]ethanol] | -4% | 82% | 
21 | FC(F)(F)c1ccc(-n2c3c4cc(-c5cnc6ccccc6c5)ccc4ncc3n3cnnc23)cc1 [3-quinoline, H, H, 4-(quinolin-3yl)-16-[4-(trifluoromethyl)phenyl]-8,11,13,14,16-pentaazatetracyclo-[8.6.0.0^2,7.0^11,15]hexadeca-1(10),2,4,6,8,12,14-heptaene] |  |  | pi3K % activity @0.03 μM (pi3K; scaffold drawing 34 series): 99%; activity at 0.03 µM (mTor; scaffold drawing 34 series): 68%
22 | FC(F)(F)c1cc(-n2c3c4cc(-c5cnc6ccccc6c5)ccc4ncc3n3cnnc23)cc(C(F)(F)F)c1 [3-quinoline, 5-CF3, H, 16-[3,5-(trifluoromethyl)phenyl]-4-(quinolin-3yl)-8,11,13,14,16-pentaazatetracyclo-[8.6.0.0^2,7.0^11,15]hexadeca-1(10),2,4,6,8,12,14-heptaene] |  |  | mTor % activity @0.03 μM (mTor; scaffold drawing 7 series): 0%
23 | Fc1cccc(-c2ccc3ncc4c(c3c2)n(-c2ccc(Cl)c(C(F)(F)F)c2)c2nncn42)c1 [3-Flurophenyl, 4-Cl, H] |  |  | mTor % activity @0.03 μM (mTor; scaffold drawing 7 series): 46%
24 | Fc1ccccc1-c1ccc2ncc3c(c2c1)n(-c1ccc(Cl)c(C(F)(F)F)c1)c1nncn31 [2-Flurophenyl, 4-Cl, H, 16-[4-chloro-3-(trifluoromethyl)phenyl]-4-(2-fluorophenyl)-8,11,13,14,16-pentaazatetracyclo-[8.6.0.0^2,7.0^11,15]hexadeca-1(10),2,4,6,8,12,14-heptaene] | 55% |  | 
